Measurements reported in the OligoGym collection.
These antisense oligonucleotides have a phosphorothioate backbone; sugars and methylation of C are not fully specified.

Biological target: GNA13
Conditions: ASO
Note: test concentration or dose not given here.

Sequence	remaining target (mRNA or protein) (fraction of control)
TCTGACCACCTACATCAA	0.2
AAGCATTTTGAAAGGAAC	≥ 1
TATTGATGTCACACTGTC	0.48
GTTGTGATGGAATATAAT	≥ 1
ATATTGTAAGAAAACCCT	≥ 1
CCTTGTTTCCACCATTCC	0.07
AGCAGCAGGATCTTCACC	0.54
CACTTGAGGAAACAAGGA	0.38
TCACCAGCCGCTTCACAT	0.23
CGGTCATAGGCATTCTGT	0.66
AAAAGATATTAAAACAGC	≥ 1
TATCCAAGTTATCCAGGA	0.48
CAATTTGCACCTTCTCCT	0.29
ACCCTCATACCTTTGATC	0.09
TGCCTTTGGTGGGTCTTC	0.51
ACTCGTCAGCAGGCAGCC	≥ 1
CCCGTGGATGATCCGCAT	≥ 1
GTTTCCTTTCTGATCTCT	0.35
TCACGTTGCTGTAGATGG	≥ 1
ACTAAGATTTTCAAGAAG	0.61
TCTTATAGCAGGAAGATA	≥ 1
CTTTTCCCGAGACAGGCA	0.08
TGTTCAGAGACTCTGTAA	0.47
AAGGTGGACTTGCCGCTC	0.24

Sequence	remaining target (mRNA or protein) (fraction of control)
AATTCTGGTTGTAAACTG	≥ 1
AGCACACGGACAGCACGG	0.51
GACAGGCATTTGTCGATC	≥ 1
TCGAAGTCCTGCCCGTGG	≥ 1
GATCTCCTTGGACTTGCG	0.33
TTGTTGGTTTGAGTTGTC	≥ 1
AGAACAGAATTATGGAGA	0.31
CTTGCGTTGCTGCTCGGC	0.36
CCGCTGTCTGCCCATAAT	0.08
GCCGCCGCCGCCGCCTCG	≥ 1
AAGCAAGTCTGTCTTGTT	0.79
CTCCATGTTGTTGGTTTG	0.46
GCGCTGGTCGAAGTCCTG	0.7
CACACGGACAGCACGGAC	0.77
CGTTTGTTCCGGAAACAT	0.76
CATCTTGCCGCCGCCGCC	0.99
CATAAGCACCTGGTCAAA	0.1
GAAAACCCTTGTTTCCAC	0.33
TCTGGTTCTCCAAGTTTA	0.25
TGCTCGGCCTCGCCACTC	0.52
CGCCTCGCCGCCTCTCCG	0.75
CCGCCGCCTCGCCGCCTC	0.33
GCCTCGCCACTCGTCAGC	0.5

Biological target: GNAS
Conditions: ASO

Sequence	remaining target (mRNA or protein) (fraction of control)
CTTTTATTTCATTTTATTTG	0.97
CTTTGGTTGCCTTCTCACTG	0.55
AGTGAGAGGGAACTTTTGTG	0.41
TTCTTTTATTTCATTTTATT	≥ 1
CTGAATGATGTCACGGCAGT	0.63
CGCAGGTGAAATGAGGGTAG	0.35
GGTTGCCTTCTCACTGTCTC	0.58
TGTTTCTTTTATTTCATTTT	≥ 1
